In brackets after ≈: the same amount, converted by molar mass. Like-named read-outs stand apart in the source and are kept apart here.
Experiments:
Experiment in all cases: Bacterial susceptibility testing (MIC, broth microdilution)
Format in all cases: cell-based
P. aeruginosa 209 = test system: P. aeruginosa 209
Experimental: (§1) Minimal inhibitory concentrations (MIC) were determined by the broth microdilution method in accordance with the Clinical and Laboratory Standards Institute (CLSI) guidelines. In brief, organism suspensions were adjusted to a 0.5 McFarland standard to yield a final inoculum between 3×10^5 and 7×10^5 colony-forming units (CFU)/mL. Drug dilutions and inocula were made in sterile, cation adjusted Mueller-Hinton Broth (Beckton Dickinson). An inoculum volume of 100 μL was added to wells containing 100 μL of broth with 2-fold serial dilutions of drug. All inoculated microdilution trays were incubated in ambient air at 35° C. for 18-24 h. […] Performance of the assay was monitored by the use of laboratory quality-control strains and levofloxacin, a compound with a defined MIC spectrum, in accordance with CLSI guidelines.

[1] = test system: P. aeruginosa 210 delta mexAB-OprM; settings: Pseudomonas aeruginosa, read-out: MIC P. aeruginosa 210 delta mexAB-OprM
Experimental: as §1

S. aureus ATCC 29213 = settings: Staphylococcus aureus
Experimental: as §1

E. coli imp mutant = settings: Escherichia coli, read-out: MIC E. coli imp mutant
Experimental: as §1

E. coli BW25113 = settings: Escherichia coli, no FBS, 35° C., 18-24 h
Experimental: as §1

E. coli ATCC 25922 = settings: Escherichia coli
Experimental: as §1

E. coli delta tolC = settings: Escherichia coli, 24 h, read-out: MIC E. coli delta tolC
Experimental: as §1

[2] = Pseudomonas aeruginosa, 209, broth microdilution, 35° C., 18-24 h, read-out: MIC P. aeruginosa 209
[3] = ATCC29213, broth microdilution, 35° C., 18-24 h, read-out: MIC S. aureus ATCC 29213
[4] = ATCC25922, no FBS, broth microdilution, 35° C., 18-24 h, read-out: MIC E. coli ATCC 25922-no FBS
[5] = Pseudomonas aeruginosa, 209, read-out: MIC P. aeruginosa 209
[6] = ATCC29213, read-out: MIC S. aureus ATCC 29213
[7] = ATCC25922, read-out: MIC E. coli ATCC 25922-no FBS

| SMILES | MIC (P. aeruginosa 209; [2]) [µg/mL] | MIC [1] [µg/mL] | MIC (S. aureus ATCC 29213; [3]) [µg/mL] | MIC (E. coli imp mutant) [µg/mL] | MIC (E. coli BW25113) [µg/mL] | MIC (E. coli ATCC 25922; [4]) [µg/mL] | MIC (E. coli delta tolC) [µg/mL] | MIC (P. aeruginosa 209; [5]) [µg/mL] | MIC (S. aureus ATCC 29213; [6]) [µg/mL] | MIC (E. coli ATCC 25922; [7]) [µg/mL] |
| --- | --- | --- | --- | --- | --- | --- | --- | --- | --- | --- |
| CN1CC2CN(C(=O)c3ccc(C#CC#Cc4ccc(NCc5occc(=O)c5O)cc4)cc3)CC2C1 (centres unmarked) [Compound 41] | > 32 | 8 to 32 (≈ 16.2 to 64.8 µM) | > 32 | 1 to 8 (≈ 2.03 to 16.2 µM) | 1 to 8 (≈ 2.03 to 16.2 µM) | 1 to 8 (≈ 2.03 to 16.2 µM) | < 1 |  |  |  |
| CNC(=O)c1ccc(-c2ccc(CCc3oc(CS(C)(=O)=O)cc(=O)c3O)cc2)cc1 [Compound 7, 4′-(2-(3-hydroxy-6-((methylsulfonyl)methyl)-4-oxo-4H-pyran-2-yl)ethyl)-N-methyl-[1,1′-biphenyl]-4-carboxamide] |  | > 32 |  | > 32 | > 32 |  | > 32 | > 32 | > 32 | > 32 |
| O=c1cc(CNc2ccc(C#CC#Cc3ccccc3)cc2)occ1O [Compound 30] | > 32 | > 32 | 8 to 32 (≈ 23.4 to 93.7 µM) | 1 to 8 (≈ 2.93 to 23.4 µM) | > 32 | > 32 | > 32 |  |  |  |
| N[C@@H]1CN(C(=O)c2ccc(C#CC#Cc3ccc(NCc4occc(=O)c4O)cc3)cc2)CC12CC2 [Compound 49] | > 32 | > 32 | > 32 | 1 to 8 (≈ 2.09 to 16.7 µM) | 1 to 8 (≈ 2.09 to 16.7 µM) | 1 to 8 (≈ 2.09 to 16.7 µM) | < 1 |  |  |  |
| O=C(c1ccc(C#CC#Cc2ccc(NCc3occc(=O)c3O)cc2)cc1)N1CCN2CCCC2C1 (centres unmarked) [Compound 43] | > 32 | 8 to 32 (≈ 16.2 to 64.8 µM) | > 32 | 1 to 8 (≈ 2.03 to 16.2 µM) | 1 to 8 (≈ 2.03 to 16.2 µM) | 1 to 8 (≈ 2.03 to 16.2 µM) | < 1 |  |  |  |
| O=C(NCc1cc(=O)c(O)co1)c1ccc(-c2ccccc2)cc1 [Compound 29] | > 32 | > 32 | > 32 | > 32 | > 32 | > 32 | > 32 |  |  |  |
| O=C(NC1CC1)c1ccc(C#CC#Cc2ccc(NCc3occc(=O)c3O)cc2)cc1 [Compound 34] | > 32 | > 32 | > 32 | 1 to 8 (≈ 2.36 to 18.8 µM) | 1 to 8 (≈ 2.36 to 18.8 µM) | 1 to 8 (≈ 2.36 to 18.8 µM) | < 1 |  |  |  |
| CNC(=O)C#CC#Cc1ccc(NCc2oc(CS(C)(=O)=O)cc(=O)c2O)cc1 [Compound 6, 5-(4-(((3-hydroxy-6-((methylsulfonyl)methyl)-4-oxo-4H-pyran-2-yl)methyl)amino)phenyl)-N-methylpenta-2,4-diynamide] |  | > 32 |  | > 32 | > 32 |  | > 32 | > 32 | > 32 | > 32 |
| O=C(c1ccc(C#CC#Cc2ccc(NCc3occc(=O)c3O)cc2)cc1)N1C[C@H]2C[C@@H]1CO2 [Compound 36] | > 32 | > 32 | > 32 | 1 to 8 (≈ 2.14 to 17.1 µM) | 1 to 8 (≈ 2.14 to 17.1 µM) | 8 to 32 (≈ 17.1 to 68.6 µM) | < 1 |  |  |  |
| COC1CN(C(=O)c2ccc(C#CC#Cc3ccc(NCc4occc(=O)c4O)cc3)cc2)C1 [Compound 51] | > 32 | > 32 | > 32 | 1 to 8 (≈ 2.2 to 17.6 µM) | 1 to 8 (≈ 2.2 to 17.6 µM) | 1 to 8 (≈ 2.2 to 17.6 µM) | < 1 |  |  |  |
| CN1CC2CN(C(=O)c3ccc(C#CC#Cc4ccc(NCc5occc(=O)c5O)cc4)cc3)C[C@@H]2C1 (some centres unmarked) [Compound 42] | > 32 | 8 to 32 (≈ 16.2 to 64.8 µM) | > 32 | 1 to 8 (≈ 2.03 to 16.2 µM) | 1 to 8 (≈ 2.03 to 16.2 µM) | 1 to 8 (≈ 2.03 to 16.2 µM) | < 1 |  |  |  |
| O=C(NCCN1CCOCC1)c1ccc(C#CC#Cc2ccc(NCc3occc(=O)c3O)cc2)cc1 [Compound 46] | > 32 | > 32 | > 32 | 1 to 8 (≈ 2.01 to 16.1 µM) | 1 to 8 (≈ 2.01 to 16.1 µM) | 8 to 32 (≈ 16.1 to 64.3 µM) | < 1 |  |  |  |
| CS(=O)(=O)Cc1cc(=O)c(O)c(COc2ccc(C#CC#Cc3ccccc3)cc2)o1 [Compound 11] |  |  |  |  |  |  |  | > 32 | 1 to 8 (≈ 2.3 to 18.4 µM) | > 32 |
| O=C(c1ccc(C#CC#Cc2ccc(NCc3occc(=O)c3O)cc2)cc1)N1CCC[C@H]1CO [Compound 50] |  |  |  |  | 1 to 8 (≈ 2.13 to 17.1 µM) | 1 to 8 (≈ 2.13 to 17.1 µM) |  |  |  |  |
